The subject of the assay is Wnt signaling. The experiment in a line: Wnt signaling-driven luciferase expression in HEK293T cells. The class given is cell-based, human. Particulars: HEK293T transfected with (LEF-TCF)7-BE3-P2A-Luc; LiCl 50 mM, 24 hours. The text has this: The Wnt signaling pathway (also known as a signaling cascade) plays a crucial role in embryonic development and aberrant Wnt signaling is associated with a variety of diseases in humans (38). A recording of Wnt signaling was sought using CAMERA 2m in human cells. To achieve this goal, the expression of BE3 was placed under a (LEF-TCF)7 promoter (39) that responds to Wnt signaling to initiate downstream gene expression in CAMERA 2 m.3. […] A (LEF-TCF)7-BE3-P2A-Luc construct that expresses a firefly luciferase protein together with BE3 was included so that Wnt could be monitored simultaneously by luminescence and by high-throughput sequencing of the CCR5 recording locus. […] This increase in Wnt signaling was permanently recorded by a 53-fold increase in base editing at the CCR5 locus upon LiCl treatment (FIG. 5E).
To enable CAMERA 2m to record Wnt signaling, a (TCF/LEF)7 promoter was installed upstream BE3 and BE3-P2A-Luc to generate CAMERA 2 m.3 ((TCF/LEF)7-BE3 and ((TCF/LEF)7-BE3-P2A-Luc). TOPFlash ((TCF/LEF)7-Luc) (47) was used as a transient readout of Wnt signaling. A control plasmid that encodes the Renilla luciferase was included to normalize transfection efficiency for luminescence readout. […]
Firefly luciferase and Renilla luciferase activities were measured 24 hours after LiCl treatment. […]

The text below walks through data of patent US12060586B2, “Cell data recorders and uses thereof” (The Broad Institute, Inc., priority 2018, dated 2024).

Molecules are shown by their SMILES.

`[Cl-].[Li+]` [LiCl]: the “fold increase in Wnt signaling-driven luciferase expression” value is 140 fold.
